Laboratory results taken from patent publication US8802723B2, “Metabolic syndrome-improving agent and medicine, supplement, functional food and food additive containing the same” (ARKRAY, Inc., priority 2005, dated 2014).

How the values were obtained:
[1] = test system: VLDL secretion in HepG2 cells; assay: VLDL secretion inhibition experiment in HepG2 cells (apoB100 ELISA); format: cell-based, human; conditions: for VLDL secretion ratio (%): HepG2, 30 hours, measurement group/control group, control (DMSO) = 100, average ± standard error
Procedure: FCS, a non-essential amino acid, sodium pyruvate and a glutamine solution were mixed such that the final concentrations of the FCS, the non-essential amino acid, the sodium pyruvate and the glutamine solution respectively were 10%, 1%, 1 mM and 2 mM, and added to an MEM medium (manufactured by SIGMA). They were mixed aseptically on a clean bench. In a 100 mm/Collagen-Coated Dish (trade name, manufactured by Iwaki Glass Works, Co.), the medium of HepG2 cells (human hepatic cells) that had been cultured to 80% to 90% confluence was removed with a pipette and washed with 2 mL of 1×PBS. After adding 2 mL of trypsin-EDTA and rotating the above-noted dish slowly so that trypsin-EDTA spread over the entire cells, this trypsin-EDTA was removed with a pipette. The dish was allowed to stand still for 15 minutes in a CO2 incubator (37° C., 5%), and then 4 mL of a growth medium was added to this dish, followed by mixing by pipetting. Then, 2 mL of this mixture was added to each of two dishes to which 3 mL of a growth medium was added in advance. These dishes were covered with lids and moved crisscross so as to mix the content. The cells were checked using a microscope (manufactured by Olympus Corporation) and cultured in a CO2 incubator (37° C., 5%). Three or four days later, after checking that 80% to 90% confluence was achieved using the microscope, subculture was carried out in a similar manner, followed by cell culture.
First, a VLDL standard solution was prepared. The VLDL standard solution was prepared by diluting 1.169 mg/mL of human VLDL standard (trade name, manufactured by CHEMICON International, Inc.) with a growth medium. The dilution factors were 100, 1000, 10000, 100000 and 1000000.
A sandwich ELISA that recognized human […] in the VLDL as an antigen was used. First, 100 μL of Moab×LDL Apolipoprotein B (ApoB) (manufactured under MONOSAN®) was dispensed in each well of ELISA PLATE, and the plate was sealed with a sterile seal and then allowed to stand still at 4° C. overnight. In the following, all the dispensing mentioned is for a single well. On the next day, 200 μL of Zepto Block (trade name, manufactured by ZeptoMetrix Corporation) was dispensed, and then the above-noted plate was sealed and allowed to stand still for 2 hours at room temperature for blocking. Subsequently, 100 μL of the medium and the VLDL standard solution were dispensed, and then the above-noted plate was sealed and allowed to stand still for 1 hour at room temperature. Washing with 200 μL of PBST and absorption using an aspirator were carried out five times in total. […] 100 μL of 1M phosphoric acid solution was added to the above-noted mixture solution, and the absorbance at 450 nm was measured using wallac ARVOsx (trade name, PerkinElmer Life Sciences, PerkinElmer, Inc.). […]

[2] = test system: HepG2 cells; assay: counting of the number of living cells (CellTiter 96 Aqueous One Solution); format: cell-based, human; conditions: HepG2, 30 hours, control (DMSO) = 100
Procedure: HepG2 was cultured to 80% to 90% confluence in a 100 mm/Collagen-Coated Dish (trade name, manufactured by Iwaki Glass Works, Co.). The medium was removed from the above-noted dish with a pipette and then HepG2 was washed with 2 mL of 1×PBS. Then, 2 mL of trypsin-EDTA was added, the above-noted dish was rotated slowly so that the trypsin-EDTA spread over the entire cells, this trypsin-EDTA was removed with a pipette, and the dish was allowed to stand still for 15 minutes in a CO2 incubator (37° C., 5%). To this dish, 12 mL of a growth medium was added, followed by mixing by pipetting, and 1 mL of this mixture solution was dispensed in each well of Collagen-Coated Microplates 12Well/Flat Bottom (trade name, manufactured by Iwaki Glass Works, Co.). After the cells were checked using a microscope, the wells were cultured in a CO2 incubator (37° C., 5%) for one to two days. After checking that 80% to 90% confluence was achieved using the microscope, a medium replacement was carried out by removing the medium and adding 800 μL of a medium containing aurapten. […] Using this collected medium, the number of living cells were counted, and the Western blotting and the ELISA measurement were carried out similarly to the above. From the result of the ELISA, the ratio of the VLDL secretion amount between the measurement group and the non-treated control group (measurement group/control group) was calculated for each sample.
The measurement was made using CellTiter 96 Aqueous One Solution Cell Proliferation Assay (trade name, manufactured by Promega Corporation). […] 100 μL of this mixture solution was dispensed to each of three wells of ELISA PLATE 96 well (trade name, manufactured by Iwaki Glass Works, Co.), and the absorbance at 490 nm was measured. The measurement was made using wallac ARVOsx (trade name, PerkinElmer Life Sciences, PerkinElmer, Inc.), and the mode of measurement was Absorbance (490 nm, 1.0 S). The ratio of the number of living cells between the measurement group and the non-treated control group (measurement group/control group) was calculated for each sample.

**Q.** Which results are given for CC(C)=CCC/C(C)=C/COc1ccc2ccc(=O)oc2c1 [Aurapten, aurapten]?
**A.** effect on VLDL secretion (in words) ([1]; 10-50 μM, degree of inhibition increased as concentration rose): VLDL secretion was inhibited; VLDL secretion ratio (%) ([1]; aurapten 10 μM): 63.1 ± 5.31%; VLDL secretion ratio (%) ([1]; aurapten 20 μM): 61.6 ± 2.21%; VLDL secretion ratio (%) ([1]; aurapten 50 μM): 45.6 ± 4.04%; Number of living cells (%) ([2]; aurapten 10 μM): 100.3%; Number of living cells (%) ([2]; aurapten 20 μM): 99.9%; Number of living cells (%) ([2]; aurapten 50 μM): 98.7%
